Activity calls are given as the source filed them. The calls are words filed in the database; no cut-off is given here.
Assays:
GBM [1] = test: Tumoricidal effect in patient derived GBM 464T cells assessed as reduction in neurosphere formation at 0.5 uM after 1 to 2 weeks by 3D tumor clonogenic assay; type: functional, cell-based; settings: Homo sapiens
[2] = biological target: Translocator protein (Rattus norvegicus) (UniProt P16257); test: Displacement of [3H]PK11195 from TSPO receptor in Sprague-Dawley rat cerebral cortex membrane at 10 nM by radiometric competitive assay; type: tissue-based
[3] = biological target: Translocator protein (Rattus norvegicus) (UniProt P16257); test: Displacement of [3H]PK11195 from TSPO receptor in Sprague-Dawley rat cerebral cortex membrane at 100 nM by radiometric competitive assay; type: tissue-based
GBM2 [4] = test: Induction of apoptosis in human GBM2 cells assessed as loss of mitochondrial membrane potential in presence of PK11195 at 10 uM after 2 hrs by JC-1 staining based fluorescence microscopy; type: functional, cell-based
[5] = biological target: Voltage-gated inwardly rectifying potassium channel KCNH2 (Homo sapiens, UniProt Q12809); test: Displacement of [3H]astemizole from human ERG potassium channel expressed in HEK293 cell membrane after 1 hr; type: cell membranes
GBM [6] = test: Tumoricidal effect in patient derived GBM 047T cells assessed as reduction in neurosphere formation at 0.5 uM after 1 to 2 weeks by 3D tumor clonogenic assay; type: functional, cell-based; settings: Homo sapiens
GBM1 = test: Induction of apoptosis in human GBM1 cells assessed as loss of mitochondrial membrane potential at 10 uM after 2 hrs by JC-1 staining based fluorescence microscopy; type: functional, cell-based
Cytochrome P450 2C19 = Cytochrome P450 2C19 (Homo sapiens, UniProt P33261); test: Inhibition of CYP2C19 (unknown origin) using luciferin tagged substrate preincubated for 10 mins before substrate addition; type: ADME
GBM [7] = test: Tumoricidal effect in patient derived GBM 464T cells assessed as reduction in neurosphere formation at 0.1 uM after 1 to 2 weeks by 3D tumor clonogenic assay; type: functional, cell-based; settings: Homo sapiens
GBM [8] = test: Tumoricidal effect in patient derived GBM 025T cells assessed as reduction in neurosphere formation at 0.5 uM after 1 to 2 weeks by 3D tumor clonogenic assay; type: functional, cell-based; settings: Homo sapiens
Cytochrome P450 1A2 = biological target: T1, Cytochrome P450 1A2 (Homo sapiens, UniProt P05177); test: Inhibition of CYP1A2 (unknown origin) using luciferin tagged substrate preincubated for 10 mins before substrate addition; type: ADME
T1 sequence (P05177 whole entry): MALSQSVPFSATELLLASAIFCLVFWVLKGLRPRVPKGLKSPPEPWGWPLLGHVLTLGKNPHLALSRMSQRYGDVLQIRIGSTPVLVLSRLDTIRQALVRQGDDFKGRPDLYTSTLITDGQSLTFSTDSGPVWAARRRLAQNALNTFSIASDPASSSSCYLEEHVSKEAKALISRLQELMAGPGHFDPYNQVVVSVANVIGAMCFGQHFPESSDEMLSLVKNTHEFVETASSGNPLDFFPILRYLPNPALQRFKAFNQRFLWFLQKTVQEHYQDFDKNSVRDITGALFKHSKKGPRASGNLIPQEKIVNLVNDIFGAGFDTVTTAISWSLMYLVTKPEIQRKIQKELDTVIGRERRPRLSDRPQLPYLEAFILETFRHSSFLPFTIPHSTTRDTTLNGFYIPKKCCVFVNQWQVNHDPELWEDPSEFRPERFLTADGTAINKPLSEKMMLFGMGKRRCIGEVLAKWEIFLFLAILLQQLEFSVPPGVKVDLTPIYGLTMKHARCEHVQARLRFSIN

[9] = Antiproliferative activity against human GBM2 cells assessed as reduction in cell viability at 10 uM incubated for 72 hrs by WST-1 method; type: functional; settings: GBM2, 72 h
GBM2 [10] = test: Induction of apoptosis in human GBM2 cells assessed as loss of mitochondrial membrane potential in presence of cyclosporine A at 10 uM after 2 hrs by JC-1 staining based fluorescence microscopy; type: functional, cell-based
GBM [11] = test: Tumoricidal effect in patient derived GBM 448T cells assessed as reduction in neurosphere formation at 0.1 uM after 1 to 2 weeks by 3D tumor clonogenic assay; type: functional, cell-based; settings: Homo sapiens
[12] = Antiproliferative activity against human GBM1 cells assessed as reduction in cell viability incubated for 72 hrs by WST-1 method; type: functional, cell-based; settings: GBM1, 72 h
GBM [13] = test: Tumoricidal effect in patient derived GBM 448T cells assessed as reduction in neurosphere formation at 0.5 uM after 1 to 2 weeks by 3D tumor clonogenic assay; type: functional, cell-based; settings: Homo sapiens
[14] = Cytotoxicity against normal human astrocytes assessed as cell viability incubated for 72 hrs by WST-1 method; type: cell-based; settings: Astrocyte
[15] = Selectivity index, ratio of IC50 for normal human astrocytes to IC50 for human GBM1 cells
GBM [16] = test: Tumoricidal effect in patient derived GBM 025T cells assessed as reduction in neurosphere formation at 0.1 uM after 1 to 2 weeks by 3D tumor clonogenic assay; type: functional, cell-based; settings: Homo sapiens
GBM [17] = test: Tumoricidal effect in patient derived GBM 096T cells assessed as reduction in neurosphere formation at 0.5 uM after 1 to 2 weeks by 3D tumor clonogenic assay; type: functional, cell-based; settings: Homo sapiens
GBM [18] = test: Tumoricidal effect in patient derived GBM 047T cells assessed as reduction in neurosphere formation at 0.1 uM after 1 to 2 weeks by 3D tumor clonogenic assay; type: functional, cell-based; settings: Homo sapiens
GBM2 [19] = test: Induction of apoptosis in human GBM2 cells assessed as loss of mitochondrial membrane potential at 10 uM after 2 hrs by JC-1 staining based fluorescence microscopy; type: functional, cell-based
[20] = biological target: Translocator protein (Rattus norvegicus) (UniProt P16257); test: Displacement of [3H]PK11195 from TSPO receptor in Sprague-Dawley rat cerebral cortex membrane at 1 uM by radiometric competitive assay; type: tissue-based
GBM [21] = test: Tumoricidal effect in patient derived GBM 096T cells assessed as reduction in neurosphere formation at 0.1 uM after 1 to 2 weeks by 3D tumor clonogenic assay; type: functional, cell-based; settings: Homo sapiens
[22] = Antiproliferative activity against human GBM1 cells assessed as reduction in cell viability at 10 uM incubated for 72 hrs by WST-1 method; type: functional; settings: GBM1, 72 h
[23] = Selectivity index, ratio of IC50 for normal human astrocytes to IC50 for human GBM3 cells
Cytochrome P450 2D6 = Cytochrome P450 2D6 (Homo sapiens, UniProt P10635); test: Inhibition of CYP2D6 (unknown origin) using luciferin tagged substrate preincubated for 10 mins before substrate addition; type: ADME
GBM2 [24] = test: Induction of apoptosis in human GBM2 cells assessed as loss of mitochondrial membrane potential in presence of BAPTA at 10 uM after 2 hrs by JC-1 staining based fluorescence microscopy; type: functional, cell-based
Translocator protein = Translocator protein (Rattus norvegicus, UniProt P16257); test: Displacement of [3H]PK11195 from TSPO receptor in Sprague-Dawley rat cerebral cortex membrane by radiometric competitive assay; type: tissue-based
[25] = Antiproliferative activity against human GBM3 cells assessed as reduction in cell viability at 10 uM incubated for 72 hrs by WST-1 method; type: functional; settings: GBM3, 72 h
[26] = Antiproliferative activity against human GBM2 cells assessed as reduction in cell viability incubated for 72 hrs by WST-1 method; type: functional, cell-based; settings: GBM2, 72 h
Cytochrome P450 2C9 = Cytochrome P450 2C9 (Homo sapiens, UniProt P11712); test: Inhibition of CYP2C9 (unknown origin) using luciferin tagged substrate preincubated for 10 mins before substrate addition; type: ADME
Cytochrome P450 3A4 = Cytochrome P450 3A4 (Homo sapiens, UniProt P08684); test: Inhibition of CYP3A4 (unknown origin) using luciferin tagged substrate preincubated for 10 mins before substrate addition; type: ADME
[27] = biological target: Translocator protein (Rattus norvegicus) (UniProt P16257); test: Displacement of [3H]PK11195 from TSPO receptor in Sprague-Dawley rat cerebral cortex membrane at 10 uM by radiometric competitive assay; type: tissue-based
[28] = Selectivity index, ratio of IC50 for normal human astrocytes to IC50 for human GBM2 cells
[29] = Antiproliferative activity against human GBM3 cells assessed as reduction in cell viability incubated for 72 hrs by WST-1 method; type: functional, cell-based; settings: GBM3, 72 h

For `O=C(Nc1cc2ncncc2cc1OCc1cccc(Cl)c1)Nc1cccc2ccccc12`, the Activity (GBM [1]) was “Active”, the inhibition [2] was 2% and the inhibition [3] was 15%. For the same compound, the Activity (GBM2 [4]) was “Active”, the IC50 [5] was over 10 µM and the Activity (GBM [6]) was “Active”. For the same compound, the Activity (GBM1) was “Active”, the IC50 (Cytochrome P450 2C19) was over 10 µM and the Activity (GBM [7]) was “Active”. The Activity (GBM [8]) was “Active”, the IC50 (Cytochrome P450 1A2) was over 10 µM and the inhibition at 10 µM [9] was 99.9%. The Activity (GBM2 [10]) was “Active”, the Activity (GBM [11]) was “inactive” and the IC50 [12] was 1.1 µM. The Activity (GBM [13]) was “Active”, the IC50 [14] was over 10 µM and the “Ratio IC50” value [15] was over 10.1. The Activity (GBM [16]) was “Active”, the Activity (GBM [17]) was “Active” and the Activity (GBM [18]) was “inactive”. The Activity (GBM2 [19]) was “Active”, the inhibition [20] was 59% and the Activity (GBM [21]) was “Active”. For the same compound, the inhibition at 10 µM [22] was 100%, the “Ratio IC50” value [23] was over 10.1 and the IC50 (Cytochrome P450 2D6) was 5.1 µM. For the same compound, the Activity (GBM2 [24]) was “Active”, the IC50 (Translocator protein) was 0.722 µM and the inhibition at 10 µM [25] was 98.7%. For the same compound, the IC50 [26] was 1.1 µM, the IC50 (Cytochrome P450 2C9) was over 10 µM and the IC50 (Cytochrome P450 3A4) was over 10 µM. The inhibition [27] was 85%, the “Ratio IC50” value [28] was over 10.1 and the IC50 [29] was 0.8 µM.

From ChEMBL document CHEMBL3632488, “Discovery of potent and selective cytotoxic activity of new quinazoline-ureas against TMZ-resistant glioblastoma multiforme (GBM)” (Eur J Med Chem, 2015)
